Literature values, collected in the CATMoS acute toxicity set (Mansouri et al. 2021).
Where “and” joins values, the source holds several entries; their conditions need not be identical. Equal entries are not always repeated.

Assay: rat acute oral toxicity
Settings: in vivo

Compound	LD50
COc1ccc(OCC(=O)N[C@@H]2C(=O)N3[C@@H]2SC(C)(C)[C@@H]3C(=O)O)cc1F	7000 mg/kg
O=NN1CN2CN(C1)CN(N=O)C2	940 mg/kg
CCCCCCC#CC(=O)OC	2220 mg/kg
Cn1c(=O)c2c(ncn2CCCCCN2CCN(c3ccc(Cl)cc3)CC2)n(C)c1=O	353 mg/kg
CN(Sc1cc(Cl)ccc1Cl)C(=O)Oc1cccc2c1OC(C)(C)C2	25 mg/kg
CN(C)CCNc1ncnc2ccccc12	670 mg/kg
CC/C=C\CC=O	1560 mg/kg
Cc1ccc2c(-c3ccccc3)nc(=O)n(C(C)C)c2c1	759 mg/kg
C(=Nc1ccc(N=Cc2ccco2)cc1)c1ccco1	1220 mg/kg
CCOP(=S)(OCC)SCn1nnc2ccccc2c1=O	7 mg/kg
CN(C)CCCN1c2ccccc2CCc2ccc(Cl)cc21	914 mg/kg and 613 mg/kg
C=C(C)CNc1ccc(C(C)C(=O)O)cc1 (stereo unspecified)	550 mg/kg
CCCc1c(OCc2cccn3c(=O)c(CCC(=O)O)cnc23)ccc(C(C)=O)c1O	4000 mg/kg
CN(C)[SiH](N(C)C)N(C)C	594 mg/kg
Cc1ncc([N+](=O)[O-])n1CC(O)CCl (stereo unspecified)	1780 mg/kg
CCOC(=O)C=Cc1ccc2c(c1)OCO2	948 mg/kg
CC(=O)CCc1ccc(OC(C)=O)cc1	3040 mg/kg
CC(C)OP(O)(=S)OC(C)C	20200 mg/kg
COc1ccc2c(c1)c(CC(=O)OCOC(=O)c1cccc(C)c1)c(C)n2C(=O)c1ccc(Cl)cc1	106 mg/kg
CCN(CC)CCCN(c1ccccc1)C1Cc2ccccc2C1	525 mg/kg
ClCCBr	64 mg/kg
Clc1ccc(C(Cn2ccnc2)OCc2ccsc2Cl)c(Cl)c1 (stereo unspecified)	770 mg/kg
CCOP(=O)(OCC)Sc1c(Cl)c(Cl)c(Cl)c(Cl)c1Cl	925 mg/kg
FC(F)(F)c1nc2c(Cl)c(Cl)ccc2[nH]1	13.1 mg/kg

Compound	LD50
CC(C)CC(C)CC(O)CC(C)C (stereo unspecified)	17000 mg/kg
CCOC(=O)COc1ccc2c(C)c(CCN(CC)CC)c(=O)oc2c1Cl	1250 mg/kg
N=C(N)NC(=O)Cc1c(Cl)cccc1Cl	142 mg/kg
O=C/C=C/O	824 mg/kg
C[Se]C	2100 mg/kg
COCc1cc(C(C)(C)C)c(O)c(C(C)(C)C)c1	10600 mg/kg
CCOC(=O)OC(C)OC(=O)[C@@H]1N2C(=O)[C@@H](NC(=O)[C@H](N)c3ccccc3)[C@H]2SC1(C)C (stereo partly specified)	10000 mg/kg
CCOP(=S)(OCC)SC(CCl)N1C(=O)c2ccccc2C1=O (stereo unspecified)	5 mg/kg
O=C(CCCl)OC1=C(OC(=O)CCCl)C(=O)OC1=O	7000 mg/kg
O=C(O)CSc1nc(-c2ccccc2)ns1	500 mg/kg
O=NN1CCCCC1	200 mg/kg
COCc1ccc(-c2ccc(COC)cc2)cc1	1370 mg/kg
Cc1ncc(COP(=O)(O)O)c(C=O)c1O	5900 mg/kg
CC(C)c1ccc(N)cc1	985 mg/kg
Cc1cc(-c2ccccc2)n[nH]1	1800 mg/kg
CCCCCCCCCc1cc(C)cc(Cc2cc(C)cc(CCCCCCCCC)c2O)c1O	33000 mg/kg
FCCBr	5 mg/kg
C=CC(=O)OCCC#N	180 mg/kg
Cc1cccc(OC(C)C)c1N(C)C(=O)CCl	950 mg/kg
CCOC(=O)C1CC(=O)C(=C(O)C2CC2)C(=O)C1 (stereo unspecified)	4460 mg/kg
C[N+]1(C)CCC(OC(=O)C(O)(c2ccccc2)c2cccs2)C1 (stereo unspecified)	3580 mg/kg
CCOC(=O)OC(C)OC1=C(C(=O)Nc2ccccn2)N(C)S(=O)(=O)c2ccccc21 (stereo unspecified)	747 mg/kg
CCCSP(=O)(OC)SCCC	6.8 mg/kg
O=C1NC2CCCCN2C12CCN(CCCN1c3ccccc3CCc3ccc(Cl)cc31)CC2 (stereo unspecified)	4910 mg/kg

Compound	LD50
Cc1cnc(C)cn1	1020 mg/kg
O=C(O)CS(=O)(=O)O	3160 mg/kg
CC1(C)CC(=O)CC(C)(C)N1[O]	1460 mg/kg
CC(C)(C)NC[C@H](O)COc1ccccc1C1CCCC1	1260 mg/kg
COP(=O)(OC)Oc1nc(Cl)c(Cl)cc1Cl	869 mg/kg
CCCN(CCC)N=O	480 mg/kg
CCOC(=O)c1ccccc1S(=O)(=O)NC(=O)Nc1nc(Cl)cc(OC)n1	4100 mg/kg
O=Cc1cccs1	915 mg/kg
COC(=S)SSC(Cl)(Cl)Cl	1540 mg/kg
FC(F)OC(Cl)C(F)(F)F (stereo unspecified)	4770 mg/kg
C#CCCCC#C	2300 mg/kg
COP(=O)(OC)OC(C)=CC(=O)Oc1ccc(C)cc1	176 mg/kg
O=C(NCNC(=O)NC1C(=O)NC(=O)N1CO)NC1C(=O)NC(=O)N1CO (stereo unspecified)	11300 mg/kg
COc1ccc(Cl)cc1N/C(=N/C1CCCCC1)c1ccccc1	625 mg/kg
COc1ccc(OC)cc1	3600 mg/kg
Cc1cccc(C)c1Nc1ncccc1C(=O)O	2.3 mg/kg
NC(=O)ON=C1CSCCS1	52 mg/kg
C/C=C(C)/C=C/C=C(C)C	1900 mg/kg
COP(=S)(OC)Oc1ccc(S(C)(=O)=O)c(C)c1	125 mg/kg
COC(=O)C=Cc1ccccc1	2610 mg/kg
CC(C)(CO)NCC(O)c1ccccc1 (stereo unspecified)	2080 mg/kg
CC1C2Cc3ccc(O)cc3C1(C)CCN2CCc1ccccc1 (stereo unspecified)	90 mg/kg
CCO/N=C(\OC(=O)c1ccccc1)c1c(OC)ccc(Cl)c1OC	15000 mg/kg
